From patent publication US20230096897A1, “Lymphocyte Population and Methods for Producing Same” (AVM Biotechnology, LLC, priority 2020, published 2023)

Assays:
AVM-NKT cells = assay: Flow cytometry of osteoarthritis patients treated with dexamethasone; type: in vivo, human; conditions: 3-6 mg/kg; 48 hours post treatment; one of four patients
[1] = tested on: human CD3high, CD45dim, CD56+ cells; assay: Human AVM-NKT cells in BRGSF humanized mice; type: in vivo, mouse; conditions: oral HED 18-45 mg/kg; 24-48 hours later
Experimental: BRGSF humanized mice on a Balb/c background from Genoway generated by transplanting human umbilical cord blood CD34+ stem cells into irradiated mice that lack mouse B and T lymphocytes and NK cells but have a functional mouse complement system are orally dosed with HED 18-45 mg/kg DSP. 24-48 hours later human CD3high, and/or human CD45dim, and/or human CD56+ cells can be observed to be about 0.2-3% of total splenocytes by flow cytometry.

[2] = tested on: human CD3high, CD45dim, CD56+ cells; assay: Human AVM-NKT cells in HuCD34-NCG mice; type: in vivo, mouse; conditions: oral HED 18-45 mg/kg; 24-48 hours later
Description: The HuCD34-NCG mouse from Charles River is a study-ready mouse model with a human-like immune system, created by adoptive transfer of CD34+ stem cells. HuCD34-NCG mice are an ideal in vivo platform to evaluate the effectiveness of compounds modulating the human immune system. The lack, or late onset, of graft-versus-host disease (GvHD) in humanized mice make them ideal for long-term studies.
NCG mice are humanized by adoptive transfer using human umbilical cord blood-derived CD34+ stem cells, following myeloablation treatment. NCG mice from 4 donors (n=2 per donor) are orally dosed with HED 18-45 mg/kg DSP. 24-48 hours later human CD3high, and/or human CD45dim, and/or human CD56+ cells can be observed to be about 0.2-3% of total splenocytes by flow cytometry.

[3] = tested on: human CD3high, CD45dim, CD56+ cells; assay: Human AVM-NKT cells in huNOG EXL mice; type: in vivo, mouse; conditions: oral HED 18-45 mg/kg; 24-48 hours later
Experimental: huNOG EXL from Taconic have an average of 54% of CD45 cells positive for human CD45. Six huNOG EXL humanized immune system mice from 3 donors (n=2 per donor) are orally dosed with HED 18-45 mg/kg DSP. 24-48 hours later human CD3high, and/or human CD45dim, and/or human CD56+ cells can be observed to be about 0.2-3% of total splenocytes by flow cytometry.

[4] = tested on: CD3high, CD45dim, CD49b+ cells; assay: Venetoclax pre-treatment before high dose DSP in female NOD mice; type: in vivo, mouse; conditions: 48 hours after HED 30 mg/kg DSP alone
Experimental: Female NOD mice of 10 weeks of age are treated with 12.5 mg/kg up to 50 mg/kg venetoclax 6-18 hours before oral gavage of a HED 30 mg/kg DSP dose. […] CD3high, CD45dim, CD49b+ cells are reduced from—70 cells/microliter with DSP alone to—40 cells/microliter with 12.5 mg/kg venetoclax pretreatment, to—20 cells/microliter with 25 mg/kg venetoclax pretreatment, to—15 cells/microliter with 50 mg/kg venetoclax pretreatment. Venetoclax is a Bcl-2 inhibitor.

dexamethasone sodium phosphate [DSP]
Cells corresponding to AVM-NKT cells (CD45 dim, CD56 very bright) in blood (AVM-NKT cells): identified
human CD3high, and/or CD45dim, and/or CD56+ cells as share of total splenocytes [1]: 0.2-3%
human CD3high, and/or CD45dim, and/or CD56+ cells as share of total splenocytes [2]: 0.2-3%
human CD3high, and/or CD45dim, and/or CD56+ cells as share of total splenocytes [3]: 0.2-3%
CD3high, CD45dim, CD49b+ cells mobilized into the blood [4]: 70 cells/microliter
